Data reported in patent publication US20180311342A1, “IMMUNOSTIMULATING AGENT” (AJINOMOTO CO., INC., priority 2017, published 2018).

Key:
Assay type in all cases: in vivo, BALB/c mice
[1] = test system: anti-OVA-specific IgG1 subclass antibody; assay: Adjuvant activity test: anti-OVA-specific IgG1 subclass antibody in serum of OVA-immunized mice (ELISA); details: after primary immunization, serum 2 weeks later; OVA 5 μg + compound 0.256 μmol in 5% αCD-added saline (Addavax mixed with saline at 1:1), dorsal-subcutaneous; compared to OVA single administration group
[2] = test system: anti-OVA-specific IgG2a subclass antibody; assay: Adjuvant activity test: anti-OVA-specific IgG2a subclass antibody in serum of OVA-immunized mice (ELISA); details: after primary immunization, serum 2 weeks later; OVA 5 μg + compound 0.256 μmol in 5% αCD-added saline (Addavax mixed with saline at 1:1), dorsal-subcutaneous; compared to OVA single administration group
[3] = test system: anti-OVA-specific IgG1 and IgG2a subclass antibody production; assay: Evaluation test of adjuvant activity (overall conclusion from anti-OVA IgG1 and IgG2a production); details: compound 0.256 μmol in 5% αCD-added saline with OVA 5 μg, dorsal-subcutaneous
Description: 8-Week-old female BALB/c mice were divided into groups (N=6), and each group was primarily immunized by dorsal-subcutaneous administration of (1) ovalbumin (OVA) (5 μg) dissolved in saline as an antigen (OVA single administration group), (2) OVA 5 μg and Addavax™ (mixed with saline at 1:1) dissolved in saline (Addavax™ administration group) as positive control adjuvant, (3) OVA 5 μg and SZ137 0.256 μmol dissolved or dispersed in 5% α-cyclodextrin (hereinafter to be simply referred to as αCD)-added saline (SZ137 administration group), (4) OVA (5 μg) and SZ138 (0.256 μmol) dissolved or dispersed in 5% αCD-added saline (SZ138 administration group), (5) OVA (5 μg) and SZ142 (0.256 μmol) dissolved or dispersed in 5% αCD-added saline (SZ142 administration group), (6) OVA (5 μg) and SZ144 (0.256 μmol) dissolved or dispersed in 5% αCD-added saline (SZ144 administration group), (7) OVA (5 μg) and SZ145 (0.256 μmol) dissolved or dispersed in 5% αCD-added saline (SZ145 administration group), (8) OVA (5 μg) and SZ146 (0.256 μmol) dissolved or dispersed in 5% αCD-added saline (SZ146 administration group), (9) OVA (5 μg) and SZ147 (0.256 μmol) dissolved or dispersed in 5% αCD-added saline (SZ147 administration group), (10) OVA (5 μg) and SZ148 (0.256 μmol) dissolved or dispersed in 5% αCD-added saline (SZ148 administration group), each per mouse. Two week later, the secondary immunization was carried out by dorsal-subcutaneous administration of solutions or dispersions similar to those of the above-mentioned (1)-(10) again. […]
To a 96 well plate was added 5 μg/ml OVA at 100 µl/well, and the mixture was incubated at 4° C. overnight. After incubation, the mixture was washed three times with 200 μl of PBS-T (PBS (phosphate buffered saline)+0.05% (v/v) Tween 20) per well, and blocked with 100 μl of 5% FCS (fetal calf serum)/PBS solution per well at room temperature for 1-2 hr. Thereafter, the mixture was washed three times with PBS-T (200 μl/well), a diluted serum sample (100 l/well) or the same amount of 5% FCS/PBS solution as a control was added, and the mixture was incubated at 37° C. for 1 hr. To calculate concentration of the antibody, the standard of an anti-OVA-specific IgG1 subclass antibody diluted with 2% FCS/PBS solution was added at 100 ng/ml, 50 ng/ml, 25 ng/ml, 12.5 ng/ml, 6.25 ng/ml, 3.125 ng/ml, 1.56 ng/ml, 0.781 ng/ml, 0.391 ng/ml, 0.195 ng/ml, 0.098 ng/ml, 0 ng/ml, per 1 well. When an anti-OVA-specific IgG2a subclass antibody was measured, the standard of an anti-OVA-specific IgG2a subclass antibody was added at 50 ng/ml, 25 ng/ml, 12.5 ng/ml, 6.25 ng/ml, 3.125 ng/ml, 1.56 ng/ml, 0.781 ng/ml, 0.391 ng/ml, 0.195 ng/ml, 0.098 ng/ml, 0.049 ng/ml, 0 ng/ml, per 1 well. Thereafter, similar to the samples, the mixture was washed five times with PBS-T (200 μl/well), a diluted biotinylated anti-mouse IgG1 antibody and IgG2a antibody were added (100 μl/well), and the mixture was incubated at 37° C. for 45 min. Thereafter, the mixture was washed five times with PBS-T (200 μl/well), a diluted anti-biotin-HRP antibody was added (100 μl/well), and the mixture was incubated at 37° C. for another 30 min. Thereafter, the mixture was washed five times with PBS-T (200 μl/well), TMB substrate solution was added (100 μl/well), and the mixture was incubated at room temperature for 10-15 min. Thereafter, a reaction quenching liquid (2N sulfuric acid solution) was added (50 l/well) to discontinue a color developing reaction, and the absorbance (OD Value=450 nm) was measured by a microplate reader. A standard curve was drawn from the measured OD values, and the concentration was calculated. […]

[4] = conclusion from IgG1/IgG2a after primary immunization
[5] = conclusion from IgG1/IgG2a after secondary immunization

SMILES	anti-OVA-specific IgG1 subclass antibody production [1]	anti-OVA-specific IgG2a subclass antibody production [2]	adjuvant activity [3, 4]	adjuvant activity [3, 5]
CCCCCCCCCCCCCCCCCC(=O)N[C@@H](CCCNC(=N)N)C(=O)NCCCCCCCC.Cl [SZ182, N-[(1S)-4-guanidino-1-(octylcarbamoyl)butyl]octadecanamide hydrochloride]	a tendency toward increase was found	a tendency toward increase was found	have an adjuvant activity	have an adjuvant activity
CCCCCCCCCCCCCCCCCCCC(=O)N[C@@H](CCCNC(=N)N)C(=O)NCCCCCCCC.Cl [SZ183, N-[(1S)-4-guanidino-1-(octylcarbamoyl)butyl]icosanamide hydrochloride]	significant enhancement	significant enhancement	have an adjuvant activity	have an adjuvant activity
CCCCCCCCCCCCCCCCCC(=O)N[C@@H](CCCCN)C(=O)NCCCCCCCC.Cl [SZ184, N-[(1S)-5-amino-1-(octylcarbamoyl)pentyl]octadecanamide hydrochloride]	a tendency toward increase was found	a tendency toward increase was found	have an adjuvant activity	have an adjuvant activity
CCCCCCCCCCCCCCCCCC(=O)N[C@@H](CCCCN)C(=O)NCCCCCCCCCCCC.Cl [SZ185, N-[(1S)-5-amino-1-(dodecylcarbamoyl)pentyl]octadecanamide hydrochloride]	significant enhancement	significant enhancement	have an adjuvant activity	have an adjuvant activity
CCCCCCCCCCCCNC(=O)[C@H](CCCNC(=N)N)NC(=O)OCCCCCCCCCCCC.Cl [SZ187, dodecyl N-[(1S)-1-(dodecylcarbamoyl)-4-guanidino-butyl]carbamate hydrochloride]	significant enhancement	significant enhancement	have an adjuvant activity	have an adjuvant activity
CCCCCCCCCCCCCCCCOC(=O)N[C@@H](CCCCN)C(=O)NCCCCCCCC.Cl [SZ188, hexadecyl N-[(1S)-5-amino-1-(octylcarbamoyl)pentyl]carbamate hydrochloride]	a tendency toward increase was found	a tendency toward increase was found	have an adjuvant activity	have an adjuvant activity
CCCCCCCCCCCCCCCCOC(=O)N[C@@H](CCCCN)C(=O)NCCCCCCCCCCCC.Cl [SZ189, hexadecyl N-[(1S)-5-amino-1-(dodecylcarbamoyl)pentyl]carbamate hydrochloride]	a tendency toward increase was found	a tendency toward increase was found	have an adjuvant activity	have an adjuvant activity
CCCCCCCCCCCCCCCCNC(=O)NCCCCNC(=N)N.Cl [SZ190, 1-(4-guanidinobutyl)-3-hexadecyl-urea hydrochloride]	a tendency toward increase was found	a tendency toward increase was found	have an adjuvant activity	have an adjuvant activity
CCCCCCCCCCCCCCCCCC(=O)N[C@H](CCCNC(=N)N)C(=O)NCCCCCCCCCCCC.Cl [SZ191, N-[(1R)-1-(dodecylcarbamoyl)-4-guanidino-butyl]octadecanamide hydrochloride]	significant enhancement	significant enhancement	have an adjuvant activity	have an adjuvant activity
CCCCCCCCCCCCCCCCNC(=O)N[C@H](CCCNC(=N)N)C(=O)NCCCCCCCCCCCC.Cl [SZ193, (2R)—N-dodecyl-5-guanidino-2-(hexadecylcarbamoylamino)pentanamide hydrochloride]	significant enhancement	significant enhancement	have an adjuvant activity	have an adjuvant activity
CCCCCCCCCCCCCCCC(=O)N[C@H](CCCCN)C(=O)NCCCCCCCCCCCC.Cl [SZ194, N-[(1R)-5-amino-1-(dodecylcarbamoyl)pentyl]hexadecanamide hydrochloride]	tended to increase	Significant enhancement	have an adjuvant activity	have an adjuvant activity
CCCCCCCCCCCCCCCCCC(=O)N[C@@H](CC(C)C)C(=O)NCCCCCCCCCCCC [SZ195, N-[(1S)-1-(dodecylcarbamoyl)-3-methyl-butyl]octadecanamide]	tended to increase	tended to increase	have an adjuvant activity	have an adjuvant activity
CCCCCCCCCCCCCCCCCC(=O)N[C@@H](CC(C)C)C(=O)NCCCCCCCC [SZ196, N-[(1S)-3-methyl-1-(octylcarbamoyl)butyl]octadecanamide]	tended to increase	tended to increase	have an adjuvant activity	have an adjuvant activity
CCCCCCCCCCCCCCCCCCCCCC(=O)N[C@@H](CC(C)C)C(=O)NCCCCCCCCCCCC [SZ197, N-[(1S)-1-(dodecylcarbamoyl)-3-methyl-butyl]docosanamide]	tended to increase	tended to increase	have an adjuvant activity	have an adjuvant activity
CCCCCCCCCCCCCCCCCCCCCC(=O)N[C@@H](CC(C)C)C(=O)NCCCCCCCC [SZ198, N-[(1S)-3-methyl-1-(octylcarbamoyl)butyl]docosanamide]	tended to increase	tended to increase	have an adjuvant activity	have an adjuvant activity
CCCCCCCCCCCCCCCC(=O)N[C@@H](CC(C)C)C(=O)NCCCCCCCC [SZ199, N-[(1S)-3-methyl-1-(octylcarbamoyl)butyl]hexadecanamide]	significant enhancement	significant enhancement	have an adjuvant activity	have an adjuvant activity
